Experimental findings from ChEMBL document CHEMBL3232824, “New synthesis of 3-(β-D-glucopyranosyl)-5-substituted-1,2,4-triazoles, nanomolar inhibitors of glycogen phosphorylase” (Eur J Med Chem, 2014) are described below.

The source made the active and inactive calls. No cut-off for these calls is given here.

Assay [1] has as its target T1, Glycogen phosphorylase, muscle form (Oryctolagus cuniculus, UniProt P00489).
T1 sequence (P00489 whole entry): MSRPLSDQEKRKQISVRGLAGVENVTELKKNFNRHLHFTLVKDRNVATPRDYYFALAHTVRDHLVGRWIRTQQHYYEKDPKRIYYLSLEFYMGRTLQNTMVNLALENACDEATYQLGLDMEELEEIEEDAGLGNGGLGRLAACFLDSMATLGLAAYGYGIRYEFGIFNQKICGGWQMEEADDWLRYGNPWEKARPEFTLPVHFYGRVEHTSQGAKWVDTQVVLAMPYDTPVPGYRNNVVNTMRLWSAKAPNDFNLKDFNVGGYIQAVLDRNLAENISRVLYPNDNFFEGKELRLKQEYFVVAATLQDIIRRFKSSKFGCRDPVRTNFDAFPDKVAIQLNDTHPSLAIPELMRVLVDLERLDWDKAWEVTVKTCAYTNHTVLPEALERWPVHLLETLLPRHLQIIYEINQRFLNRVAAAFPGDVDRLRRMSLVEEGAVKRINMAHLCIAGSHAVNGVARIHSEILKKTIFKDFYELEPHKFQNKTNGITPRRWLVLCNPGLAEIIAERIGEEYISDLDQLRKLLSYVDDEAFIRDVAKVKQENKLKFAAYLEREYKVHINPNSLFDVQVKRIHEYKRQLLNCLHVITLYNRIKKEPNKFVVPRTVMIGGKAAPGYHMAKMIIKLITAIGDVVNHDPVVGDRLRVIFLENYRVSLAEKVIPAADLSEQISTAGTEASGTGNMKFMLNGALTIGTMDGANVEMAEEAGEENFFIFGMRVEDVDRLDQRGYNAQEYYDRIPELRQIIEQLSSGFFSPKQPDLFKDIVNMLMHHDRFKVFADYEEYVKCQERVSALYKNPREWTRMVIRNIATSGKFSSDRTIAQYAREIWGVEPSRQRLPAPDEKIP

The target in assay [2] is T2, Glycogen phosphorylase, muscle form (Oryctolagus cuniculus) (UniProt P00489).
T2 sequence (whole entry): T1 sequence (P00489 whole entry)
Briefly: Inhibition of rabbit muscle glycogen phosphorylase b.

The target in assay [3] is T2, Glycogen phosphorylase, muscle form (Oryctolagus cuniculus). Briefly: Inhibition of rabbit muscle glycogen phosphorylase b at 625 uM.

Turning to `OC[C@H]1O[C@@H](c2nc(-c3ccc4ccccc4c3)no2)[C@H](O)[C@@H](O)[C@@H]1O`, the inhibitory constant (Ki) in assay [1] is 12 µM. In other words, the double-digit micromolar range.
The same measure, in the same setting: then `OC[C@H]1O[C@@H](c2nc(-c3ccccc3)no2)[C@H](O)[C@@H](O)[C@@H]1O`, with 27 µM; and `Nc1ccc(-c2n[nH]c([C@@H]3O[C@H](CO)[C@@H](O)[C@H](O)[C@H]3O)n2)cc1`, with 0.67 µM.
As to `Cc1nc([C@@H]2O[C@H](CO)[C@@H](O)[C@H](O)[C@H]2O)no1`, the inhibition result in assay [2] is “inactive”.
`CC(C)(C)c1n[nH]c([C@@H]2O[C@H](CO)[C@@H](O)[C@H](O)[C@H]2O)n1`: in assay [3], the inhibition result is “inactive”.
With `O=[N+]([O-])c1ccc(-c2n[nH]c([C@@H]3O[C@H](CO)[C@@H](O)[C@H](O)[C@H]3O)n2)cc1`, the affinity in assay [1], expressed as Ki, was 33.5 µM.
`OC[C@H]1O[C@@H](c2nc(-c3ccc(C(F)(F)F)cc3)n[nH]2)[C@H](O)[C@@H](O)[C@@H]1O` gave a Ki in assay [1] of 111 µM. This Ki is about 3.3-fold higher than that of the molecule before.
On the same count and under the same terms, then `Nc1cc(N)cc(-c2n[nH]c([C@@H]3O[C@H](CO)[C@@H](O)[C@H](O)[C@H]3O)n2)c1`, with 14 µM.
For `COc1ccc(-c2n[nH]c([C@@H]3O[C@H](CO)[C@@H](O)[C@H](O)[C@H]3O)n2)cc1`, in assay [1], the Ki worked out at 1.9 µM.
Still for that read-out and setting: in the case of `OC[C@H]1O[C@@H](c2nc3cc4ccccc4cc3[nH]2)[C@H](O)[C@@H](O)[C@@H]1O` it was 2.1 µM; in that of `CC(C)(C)c1ccc(-c2n[nH]c([C@@H]3O[C@H](CO)[C@@H](O)[C@H](O)[C@H]3O)n2)cc1`, 778 µM; in that of `Cc1n[nH]c([C@@H]2O[C@H](CO)[C@@H](O)[C@H](O)[C@H]2O)n1`, 499 µM.
`OC[C@H]1O[C@@H](c2nc(-c3ccc(O)cc3)n[nH]2)[C@H](O)[C@@H](O)[C@@H]1O`: in assay [1], the Ki was 2.9 µM.
Same read-out and setting: then `Cc1cc(C)cc(-c2n[nH]c([C@@H]3O[C@H](CO)[C@@H](O)[C@H](O)[C@H]3O)n2)c1`, with 39.7 µM.
In the case of `O=C(O)c1ccc(-c2n[nH]c([C@@H]3O[C@H](CO)[C@@H](O)[C@H](O)[C@H]3O)n2)cc1`, the inhibition result in assay [3] was “inactive”.
In assay [1], `OC[C@H]1O[C@@H](c2nc(-c3ccccn3)n[nH]2)[C@H](O)[C@@H](O)[C@@H]1O` came in with an inhibition constant Ki of 707 µM.
Still for that read-out and setting: in the case of `Cc1ccc(-c2n[nH]c([C@@H]3O[C@H](CO)[C@@H](O)[C@H](O)[C@H]3O)n2)cc1` it was 1.7 µM.
For the molecule `O=[N+]([O-])c1cc(-c2n[nH]c([C@@H]3O[C@H](CO)[C@@H](O)[C@H](O)[C@H]3O)n2)cc([N+](=O)[O-])c1`, the inhibition entry in assay [3] was “inactive”.

The Ki is the dissociation constant of the complex between target and ligand, obtained from inhibition or displacement.
